# Measurements taken from US12697328B2, “Methods for treating metastasis with cathepsin C inhibitors” (Shanghai Institute of Nutrition and Health, Chinese Academy …, priority 2020, dated 2026).
# Legend:
# membrane-bound PR3 = target: T1, membrane-bound PR3 (Homo sapiens, UniProt P24158); experiment: Membrane-bound PR3 activity of neutrophils cultured with CM of SCP28 cells overexpressing CTSC; format: cell-based; settings: Sivelestat 10 μM, Alvelestat 10 μM, CTSGi 20 μM, FIG. 7D
# T1 construct: endogenous in cells; host or cells: human peripheral-blood neutrophils (whole-cell suspension)
# T1 sequence (P24158 28-248): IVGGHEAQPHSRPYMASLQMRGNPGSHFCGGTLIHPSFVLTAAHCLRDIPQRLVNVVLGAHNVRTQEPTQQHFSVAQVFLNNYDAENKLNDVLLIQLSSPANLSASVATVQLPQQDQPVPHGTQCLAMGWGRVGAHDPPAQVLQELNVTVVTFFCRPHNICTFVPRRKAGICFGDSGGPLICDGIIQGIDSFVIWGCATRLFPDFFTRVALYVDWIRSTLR
# Protocol: The procedure of enzyme activity assays were conducted as previously reported (Korkmaz et aL, “Neutrophil proteinase 3 and dipeptidyl peptidase I (cathepsin C) as pharmacological targets in granulomatosis with polyangiitis (Wegener granulomatosis),” Semin. Immunopathol. 35:411-421 (2008)). The PR3 or NE enzymatic activity was quantified by detecting the rate of hydrolysis of the PR3-specific substrate (Abz)-VADnorVADRQ-(EDDnp) or NE specific substrate (Abz)-APEEIMRRQ-(EDDnp) by cell suspension or free enzymes. To analyze membrane-bound PR3 activity, neutrophils were cultured in cancer cell CM or non-conditioned medium, and treated with DMSO or various inhibitors, including Sivelestat (10 μM), Alvelestat (10 μM) and CTSGi (20 μM) for 30-45 min at 37° C. Then, cells were suspended in activity buffer (5×10^6 per ml, PBS, 4 mM EGTA, pH 7.4) with 15 μM of the PR3-specific substrate, and the kinetic of hydrolysis was followed by measuring the fluorescence at λex=320 nm and λem=420 nm. For activation of PR3 in isolated plasma membrane fraction, recombinant human CTSC (1071-CY, R&D) was activated according to the manufacturer's instruction. […] The activity of free PR3 and NE were measured in the assay buffer (50 mM Tris, 750 mM NaCl, pH 7.4) with 15 μM specific substrates by recording the fluorescence at λex=320 nm and λem=420 nm. […]
# IL-1β = IL-1β secretion of neutrophils pre-treated with CM of SCP28 cancer cells (ELISA); format: cell-based; settings: human neutrophils pre-treated with CM of SCP28 with CTSC overexpressed; FIG. 7H
# Protocol: ELISA kits were used to assay the levels of human IL-1β (88-7621-88, ThermoFisher), mouse IL-1β (432604, Biolegend), mouse IL6 (88-7064-88, ThermoFisher), mouse CCL3 (88-56013-88, ThermoFisher) in cell culture supernatants or sera according to the manufacturer's instruction. Briefly, 96-well MaxiSorp™ ELISA Plates (44-2404, ThermoFisher) was coated with capture antibody overnight at 4° C. in coating buffer (15 mM of Na2CO3, 35 mM of NaHCO3, at pH 9.6). After three washes in PBS, the wells were blocked with 5% BSA in PBS for 45 min at room temperature. Then, 100 μl of cell culture supernatants or sera and standard samples were added into the wells and incubated for 2 h at room temperature, and the plates were washed three times with washing buffer (1% BSA, 0.05% Tween-20 in PBS). Next, biotin-conjugated detection antibody in 2.5% BSA was added into the wells and incubated for 2 h at room temperature. After three washes with washing buffer, HRP-streptavidin was incubated for 45 min at room temperature. Then, signals were detected using TMB solution and read at 450 nm.
# [1] = tested on: hepatocellular carcinoma cells HUH7; experiment: NET-promoted tumor sphere formation, liver cancer; format: cell-based; settings: neutrophil medium, CM with or without brensocatib, FIG. 11N
# Protocol: To test the therapeutic effects of brensocatib in different cancer types in vitro, the ability of brensocatib to inhibit NET-promoted tumor sphere formation is investigated. The neutrophils are cultured with conditioned medium from tumor cells of colon cancer, liver cancer, lung cancer, gastric cancer and pancreatic cancer with or without brensocatib treatment to activate NETosis, and then the neutrophil medium was used in tumor sphere formation of these cancer cells to analyze the effect of neutrophil medium to facilitate tumor cell growth. The amount of tumorsphere in each sample is then determined by imaging.
# CTSC = target: T2, CTSC (Homo sapiens, UniProt P53634); experiment: CTSC protein expression in metastatic tumor cells; format: cell-based; settings: a number of metastatic tumor cell types treated with brensocatib; FIGS. 11A-C
# T2 construct: The CTSC protein secretion level in tumor cells with different capabilities of metastasis to various target organs; endogenous in cells; host or cells: metastatic breast cancer cells (MDA-MB-231, SP16, SP16L; bone-metastatic lines) and bone-metastatic lung cancer cells
# T2 sequence (P53634 25-463): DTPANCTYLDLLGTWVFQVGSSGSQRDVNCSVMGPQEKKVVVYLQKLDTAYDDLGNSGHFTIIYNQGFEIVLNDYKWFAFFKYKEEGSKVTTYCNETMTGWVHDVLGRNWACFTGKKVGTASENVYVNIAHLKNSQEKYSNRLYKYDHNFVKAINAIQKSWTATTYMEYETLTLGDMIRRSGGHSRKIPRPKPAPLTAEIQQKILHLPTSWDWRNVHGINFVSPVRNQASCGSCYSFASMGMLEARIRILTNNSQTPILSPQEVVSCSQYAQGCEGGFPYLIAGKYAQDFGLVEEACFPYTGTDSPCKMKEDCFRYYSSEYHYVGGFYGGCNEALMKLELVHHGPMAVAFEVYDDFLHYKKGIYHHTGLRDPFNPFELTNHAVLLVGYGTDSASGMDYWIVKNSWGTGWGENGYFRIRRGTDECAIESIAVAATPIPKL
# Protocol: Cultured cells were collected by scraper or trypsinized and then lysed with lysis buffer (50 mM Tris-HCl, 150 mM NaCl, 1% NP-40 detergent, 0.5% sodium deoxycholate, 0.1% SDS with phosphatase and protease inhibitors), and dispersed tissue were homogenized in RIPA buffer on ice for 15 min, followed by centrifugation at 17,000 g for 15 min. The protein concentration was measured with a BCA Protein Assay Kit. Proteins of 10 μg, 80 μg, 30 μg were loaded for membrane proteins, IL-1β processing, p65 phosphorylation and the other assays, respectively, and separated on 8-12% SDS-polyacrylamide gel. For cancer cell conditioned medium (CM) collection, cells were grown to ~80% confluence in 10 cm culture dishes. After three times washing with serum-free medium at 37° C., the cells were incubated in serum-free medium at 37° C. for 24 h. The CM were collected, centrifuged at 2,000 g for 10 min, filtrated by 0.22 μm filters, stored at −80° C. until used. The secreted proteins in CM were collected by TCA precipitation. Briefly, 25% v/v TCA was added into 1 ml CM with phosphatase and protease inhibitors, incubated overnight at 4° C., and then centrifuged at 20,000 g for 60 min, after which the supernatant was discarded and the pellet was washed twice with 1 ml pre-chilled acetone, centrifuged again at 20,000 g for 5 min at 4° C. […]
# [2] = tested on: bone-metastatic breast cancer cell SCP2; experiment: Tumor sphere formation of bone-metastatic breast cancer cells in neutrophil medium; format: cell-based; settings: neutrophils cultured with cancer cell CM with or without brensocatib, FIG. 11E
# Protocol: The neutrophils are cultured with conditioned medium from the cancer cells with or without brensocatib treatment to activate NETosis, and then the neutrophil medium was used in tumor sphere formation of bone and liver-metastatic breast cancer cells to analyze the effect of neutrophil medium to facilitate tumor cell growth. The data are shown in FIG. 11E for bone-metastatic breast cancer cell SCP2 and FIG. 11H for liver-metastatic breast cancer cell SCP16.
# liver cancer cells HUH7 = experiment: Mouse xenograft, liver tumor cells by spleen injection; format: in vivo; settings: nude mice
# Protocol: A series of mouse xenograft studies are conducted by injecting liver and pancreatic tumor cells into nude mice by spleen injection. Then the mice are treated by brensocatib, and the growth of the tumors in liver is observed.
upregulated PR3 activity resulting from CTSC overexpression (membrane-bound PR3),Compound,IL-1β levels (secretion) of neutrophils (IL-1β),NET-promoted tumor sphere formation (in vitro tumor growth) [1],CTSC protein expression (CTSC),capability of drug-treated neutrophils to facilitate tumor cell growth (tumor sphere formation) [2],"formation of liver surface nodules (liver cancer cells HUH7; spleen injection of HUH7, FIG. 12B)","tumor growth of liver cancer cells HUH7 in liver (liver cancer cells HUH7; spleen injection, FIG. 12A)"
significantly reduces,CC(C)(C)C(=O)Oc1ccc(S(=O)(=O)Nc2ccccc2C(=O)NCC(=O)O)cc1 [Silvelestat],reduces,,,,,
,"Cn1c(=O)oc2ccc(-c3ccc(C[C@@H](C#N)NC(=O)[C@@H]4CNCCCO4)cc3)cc21 [brensocatib, (2S)—N-{(1S)-1-cyano-2-[4-(3-methyl-2-oxo-2,3-dihydro-1,3-benzoxazol-5-yl)phenyl]ethyl}-1,4-oxazepane-2-carboxamide]",,inhibit in vitro tumor growth,significantly reduced,significantly weakened,suppresses,significantly inhibits tumor growth
